In the test the target is ROCK2 (Homo sapiens, UniProt O75116). As to the kind of experiment: ROCK assay: phosphorylation of FITC peptide substrate, LABCHIP 3000 mobility shift. The format is biochemical. The note with it: 5 μM ATP, 1.5 μM peptide substrate; read-out: ROCK2 Activity (ROCK IC50 range). Summed up:
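IC50 values come from curve-fitting percent kinase inhibition across a compound dilution series. The reaction is started with Rho kinase variant in HEPES pH 7.5 buffer with MgCl2, Brij-35 and DTT, with 5 μM ATP, 1.5 μM FITC-labelled peptide and under 2% DMSO. After EDTA quench, product and substrate are separated by microfluidic mobility shift.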

The structures appear in SMILES notation.

As a reminder, the IC50 is the point on the concentration scale where inhibition reaches its midpoint.

ROCK2, sequence (O75116 whole entry, species assumed): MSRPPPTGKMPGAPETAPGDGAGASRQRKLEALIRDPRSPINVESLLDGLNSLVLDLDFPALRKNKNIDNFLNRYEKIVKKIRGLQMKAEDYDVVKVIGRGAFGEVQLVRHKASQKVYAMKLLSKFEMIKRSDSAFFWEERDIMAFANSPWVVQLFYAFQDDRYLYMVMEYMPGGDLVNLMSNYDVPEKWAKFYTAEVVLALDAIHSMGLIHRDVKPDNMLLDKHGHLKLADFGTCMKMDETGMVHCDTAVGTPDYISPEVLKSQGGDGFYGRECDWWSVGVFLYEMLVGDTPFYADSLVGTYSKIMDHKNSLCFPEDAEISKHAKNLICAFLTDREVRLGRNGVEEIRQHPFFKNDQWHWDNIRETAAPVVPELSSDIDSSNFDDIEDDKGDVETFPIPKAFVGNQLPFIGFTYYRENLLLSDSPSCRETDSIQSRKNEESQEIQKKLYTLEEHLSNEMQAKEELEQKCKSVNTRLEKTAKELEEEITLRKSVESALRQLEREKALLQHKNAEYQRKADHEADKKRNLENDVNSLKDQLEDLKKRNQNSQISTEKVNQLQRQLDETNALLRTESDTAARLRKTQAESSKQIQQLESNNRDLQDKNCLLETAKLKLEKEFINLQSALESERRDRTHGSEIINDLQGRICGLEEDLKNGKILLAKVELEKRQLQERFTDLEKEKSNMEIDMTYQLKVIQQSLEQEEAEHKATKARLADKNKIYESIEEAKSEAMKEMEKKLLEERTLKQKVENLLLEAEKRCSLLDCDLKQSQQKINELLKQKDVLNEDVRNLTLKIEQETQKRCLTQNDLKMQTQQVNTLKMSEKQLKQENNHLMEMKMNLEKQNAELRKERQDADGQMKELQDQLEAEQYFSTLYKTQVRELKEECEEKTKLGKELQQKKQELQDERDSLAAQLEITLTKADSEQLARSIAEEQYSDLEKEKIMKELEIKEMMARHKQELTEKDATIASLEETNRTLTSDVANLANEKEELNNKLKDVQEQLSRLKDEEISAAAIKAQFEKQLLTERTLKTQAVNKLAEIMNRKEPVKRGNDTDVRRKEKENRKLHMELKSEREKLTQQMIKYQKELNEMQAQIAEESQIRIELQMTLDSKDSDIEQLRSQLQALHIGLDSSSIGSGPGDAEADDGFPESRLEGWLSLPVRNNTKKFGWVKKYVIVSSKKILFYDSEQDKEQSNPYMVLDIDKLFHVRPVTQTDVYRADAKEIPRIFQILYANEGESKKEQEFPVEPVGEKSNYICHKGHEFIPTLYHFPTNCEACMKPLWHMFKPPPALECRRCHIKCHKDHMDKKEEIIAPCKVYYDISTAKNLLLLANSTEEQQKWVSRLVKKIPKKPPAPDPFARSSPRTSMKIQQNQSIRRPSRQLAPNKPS

As for `[H][C@]1(c2n[nH]c(=O)c3ccccc32)C[C@@]2(C[C@H](NC(=O)c3cnc4cc(N5CC[C@@H](F)C5)ccn34)C2)C1` (stereo partly drawn) [Example 393, 7-((R)-3-fluoropyrrolidin-1-yl)-N-((aR)-6-(4-oxo-3,4-dihydrophthalazin-1-yl)spiro[3.3]heptan-2-yl)imidazo[1,2-a]pyridine-3-carboxamide], the IC50 lay in the range of 0.2 to 2 nM.

For the compound `[H][C@]1(c2n[nH]c(=O)c3ccccc32)C[C@@]2(C[C@H](NC(=O)c3cnc4cc(N5CC[C@H](F)C5)ccn34)C2)C1` (stereo partly drawn) [Example 394, 7-((S)-3-fluoropyrrolidin-1-yl)-N-((aR)-6-(4-oxo-3,4-dihydrophthalazin-1-yl)spiro[3.3]heptan-2-yl)imidazo[1,2-a]pyridine-3-carboxamide], the IC50 was 0.2 to 2 nM.

For `[H][C@]1(c2n[nH]c(=O)c3ccccc32)C[C@@]2(C[C@H](NC(=O)c3cnc4cc(N5CC[C@@H](O)C5)ccn34)C2)C1` (stereo partly drawn) [Example 395, 7-((R)-3-hydroxypyrrolidin-1-yl)-N-((aR)-6-(4-oxo-3,4-dihydrophthalazin-1-yl)spiro[3.3]heptan-2-yl)imidazo[1,2-a]pyridine-3-carboxamide], the half-maximal inhibitory concentration (IC50) was 2.01 to 5 nM. Take `[H][C@]1(c2n[nH]c(=O)c3ccccc32)C[C@]2(C[C@@H](NC(=O)c3cnc4cc(N(C)CCO)ccn34)C2)C1` (stereo partly drawn) [Example 396, 7-((2-hydroxy-ethyl)(methyl)amino)-N-((aR)-6-(4-oxo-3,4-dihydrophthalazin-1-yl)spiro[3.3]heptan-2-yl)imidazo[1,2-a]pyridine-3-carboxamide]: the 50% inhibitory concentration (IC50) is 2.01 to 5 nM. Consider `[H][C@]1(c2n[nH]c(=O)c3ccccc32)C[C@]2(C[C@@H](NC(=O)c3cnc4cc(N(C)CCOC)ccn34)C2)C1` (stereo partly drawn) [Example 397, 7-((2-methoxy-ethyl)(methyl)amino)-N-((aR)-6-(4-oxo-3,4-dihydrophthalazin-1-yl)spiro[3.3]heptan-2-yl)imidazo[1,2-a]pyridine-3-carboxamide], for which the half-maximal inhibitory concentration (IC50) lay in the range of 0.2 to 2 nM. On to `[H][C@]1(c2n[nH]c(=O)c3ccccc32)C[C@]2(C[C@@H](NC(=O)c3cnc4cc(OCCN5CCOCC5)ccn34)C2)C1` (stereo partly drawn) [Example 398, 7-(2-morpholinoethoxy)-N-((aR)-6-(4-oxo-3,4-dihydrophthalazin-1-yl)spiro[3.3]heptan-2-yl)imidazo[1,2-a]pyridine-3-carboxamide], for which the IC50 lay in the range of 0.2 to 2 nM. As to `[H][C@]1(c2n[nH]c(=O)c3ccccc32)C[C@]2(C[C@@H](NC(=O)c3cnc4cc(N(C)CC(C)(C)O)ccn34)C2)C1` (stereo partly drawn) [Example 399, 7-((2-hydroxy-2-methyl-propyl)(methyl)amino)-N-((aR)-6-(4-oxo-3,4-dihydrophthalazin-1-yl)spiro[3.3]heptan-2-yl)imidazo[1,2-a]pyridine-3-carboxamide], the IC50 lay within 2.01 to 5 nM.

Regarding `[H][C@]1(c2n[nH]c(=O)c3ccccc32)C[C@]2(C[C@@H](NC(=O)c3cnc4cc(OCC(C)(C)O)ccn34)C2)C1` (stereo partly drawn) [Example 400, 7-(2-hydroxy-2-methylpropoxy)-N-((aR)-6-(4-oxo-3,4-dihydrophthalazin-1-yl)spiro[3.3]heptan-2-yl)imidazo[1,2-a]pyridine-3-carboxamide], the IC50 lay within 0.2 to 2 nM. As to `[H][C@]1(c2n[nH]c(=O)c3ccccc32)C[C@]2(C[C@@H](NC(=O)c3cnc4cc(OCCN5CCCC5)ccn34)C2)C1` (stereo partly drawn) [Example 401, N-((aR)-6-(4-oxo-3,4-dihydrophthalazin-1-yl)spiro[3.3]heptan-2-yl)-7-(2-(pyrrolidin-1-yl)ethoxy)imidazo[1,2-a]pyridine-3-carboxamide], the half-inhibitory concentration (IC50) lay within 2.01 to 5 nM. On to `[H][C@]1(c2n[nH]c(=O)c3ccccc32)C[C@]2(C[C@@H](NC(=O)c3cn(CC(C)(C)O)c4cc(=O)ccn34)C2)C1` (stereo partly drawn) [Example 402, 1-(2-hydroxy-2-methylpropyl)-7-oxo-N-((aR)-6-(4-oxo-3,4-dihydrophthalazin-1-yl)spiro[3.3]heptan-2-yl)-1,7-dihydroimidazo[1,2-a]pyridine-3-carboxamide], for which the IC50 is 100 to 2100 nM. As for `[H][C@]1(c2n[nH]c(=O)c3ccccc32)C[C@]2(C[C@@H](NC(=O)c3cnc4cc(C(F)(F)F)ccn34)C2)C1` (stereo partly drawn) [Example 403, N-((aR)-6-(4-oxo-3,4-dihydrophthalazin-1-yl)spiro[3.3]heptan-2-yl)-7-(trifluoromethyl)imidazo[1,2-a]pyridine-3-carboxamide], the figure is 2.01 to 5 nM; as for `[H][C@]1(c2n[nH]c(=O)c3ccccc32)C[C@]2(C[C@@H](NC(=O)c3cnc4c(F)cc(C(F)(F)F)cn34)C2)C1` (stereo partly drawn) [Example 404, 8-fluoro-N-((aR)-6-(4-oxo-3,4-dihydrophthalazin-1-yl)spiro[3.3]heptan-2-yl)-6-(trifluoromethyl)imidazo[1,2-a]pyridine-3-carboxamide], 15.1 to 100 nM; as for `[H][C@]1(c2n[nH]c(=O)c3ccccc32)C[C@]2(C[C@@H](NC(=O)c3cnc4c(C)cc(F)cn34)C2)C1` (stereo partly drawn) [Example 405, 6-fluoro-8-methyl-N-((aR)-6-(4-oxo-3,4-dihydrophthalazin-1-yl)spiro[3.3]heptan-2-yl)imidazo[1,2-a]pyridine-3-carboxamide], 0.2 to 2 nM. With `[H][C@]1(c2n[nH]c(=O)c3ccccc32)C[C@]2(C[C@@H](NC(=O)c3cnc4cc(OC(F)F)ccn34)C2)C1` (stereo partly drawn) [Example 406, 7-(difluoromethoxy)-N-((aR)-6-(4-oxo-3,4-dihydrophthalazin-1-yl)spiro[3.3]heptan-2-yl)imidazo[1,2-a]pyridine-3-carboxamide], the concentration for half-maximal inhibition (IC50) was in the range of 0.2 to 2 nM.

Take `[H][C@]1(c2n[nH]c(=O)c3ccccc32)C[C@]2(C[C@@H](NC(=O)c3cnc4ccc(F)c(C)n34)C2)C1` (stereo partly drawn) [Example 407, 6-fluoro-5-methyl-N-((aR)-6-(4-oxo-3,4-dihydrophthalazin-1-yl)spiro[3.3]heptan-2-yl)imidazo[1,2-a]pyridine-3-carboxamide]: the IC50 lay in the range of 15.1 to 100 nM. Take `[H][C@]1(c2n[nH]c(=O)c3ccccc32)C[C@]2(C[C@@H](NC(=O)c3cnc4ccc(F)cn34)C2)C1` (stereo partly drawn) [Example 408, 6-fluoro-N-((aR)-6-(4-oxo-3,4-dihydrophthalazin-1-yl)spiro[3.3]heptan-2-yl)imidazo[1,2-a]pyridine-3-carboxamide]: the half-maximal inhibitory concentration (IC50) was 2.01 to 5 nM.

For `[H][C@]1(c2n[nH]c(=O)c3ccccc32)C[C@]2(C[C@@H](NC(=O)c3cnc4cc(NCC(C)(C)O)ccn34)C2)C1` (stereo partly drawn) [Example 409, 7-((2-hydroxy-2-methylpropyl)amino)-N-((aR)-6-(4-oxo-3,4-dihydrophthalazin-1-yl)spiro[3.3]heptan-2-yl)imidazo[1,2-a]pyridine-3-carboxamide,], the 50% inhibitory concentration (IC50) was 2.01 to 5 nM. As for `[H][C@]1(c2n[nH]c(=O)c3ccccc32)C[C@]2(C[C@@H](NC(=O)c3cnc4cc(C)c(F)cn34)C2)C1` (stereo partly drawn) [Example 410, 6-fluoro-7-methyl-N-((aR)-6-(4-oxo-3,4-dihydrophthalazin-1-yl)spiro[3.3]heptan-2-yl)imidazo[1,2-a]pyridine-3-carboxamide], the concentration for half-maximal inhibition (IC50) was in the range of 2.01 to 5 nM. The result for `[H][C@]1(c2n[nH]c(=O)c3ccccc32)C[C@]2(C[C@@H](NC(=O)c3cnc4c(F)cc(F)cn34)C2)C1` (stereo partly drawn) [Example 411, 6,8-difluoro-N-((aR)-6-(4-oxo-3,4-dihydrophthalazin-1-yl)spiro[3.3]heptan-2-yl)imidazo[1,2-a]pyridine-3-carboxamide] reads 5.1 to 15 nM.

Source of the values: patent US9902702B2, “Spirocycloheptanes as inhibitors of rock” (BRISTOL-MYERS SQUIBB COMPANY, priority 2014, dated 2018).
